Experimental data: PubChem BioAssay (NCI)
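Tested at 5 concentrations; 48 h exposure; 96-well plates; endpoints linearly interpolated, else capped at highest concentration. GI50: concentration for 50% inhibition of growth. TGI is the concentration that stops growth completely.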

Assays:
Assay in all cases: NCI anticancer screen, dose series, 48 h
786-0 renal = test system: 786-0 renal
HCT-116 colon = test system: HCT-116 colon
HOP-92 NSCLC = test system: HOP-92 NSCLC
IGROV1 ovarian = test system: IGROV1 ovarian
OVCAR-8 ovarian = test system: OVCAR-8 ovarian
SF-295 CNS = test system: SF-295 CNS
U251 CNS = test system: U251 CNS
MALME-3M melanoma = test system: MALME-3M melanoma
SR leukemia = test system: SR leukemia
DU-145 prostate = test system: DU-145 prostate

Q: For `c1cc[c]([Sn]([O]c2cccc3cccnc23)([c]2ccccc2)[c]2ccccc2)cc1`, which GI50 (786-0 renal) is on record?
A: The GI50 was 0.015 µM.

Q: What about the TGI (786-0 renal) of the same molecule?
A: The TGI was 0.029 µM.

Q: And the GI50 (HCT-116 colon)?
A: The GI50 was < 0.01 µM.

Q: And the TGI (HCT-116 colon)?
A: Its TGI is 0.0198 µM.

Q: What about the GI50 (HOP-92 NSCLC) of the same molecule?
A: The GI50 was 0.0172 µM.

Q: What about the TGI (HOP-92 NSCLC) of the same molecule?
A: Its TGI is 0.0575 µM.

Q: What about the GI50 (IGROV1 ovarian) of the same molecule?
A: The GI50 was 0.0196 µM.

Q: What about the TGI (IGROV1 ovarian) of the same molecule?
A: Its TGI is 0.0428 µM.

Q: And the GI50 (OVCAR-8 ovarian)?
A: Its GI50 is 0.0184 µM.

Q: What about the TGI (OVCAR-8 ovarian) of the same molecule?
A: The TGI was 0.0336 µM.

Q: What about the GI50 (SF-295 CNS) of the same molecule?
A: The GI50 was 0.0306 µM.

Q: And the TGI (SF-295 CNS)?
A: Its TGI is 0.0761 µM.

Q: And the GI50 (U251 CNS)?
A: The GI50 was 0.0184 µM.

Q: What about the TGI (U251 CNS) of the same molecule?
A: The TGI was 0.0374 µM.

Q: For `Cc1ccc(S(=O)(=O)N/N=C/CN2C(=O)c3ccccc3C2=O)cc1`, which TGI (786-0 renal) is on record?
A: Its TGI is > 100 µM.

Q: And the TGI (HCT-116 colon)?
A: The TGI was > 100 µM.

Q: And the TGI (IGROV1 ovarian)?
A: The TGI was > 100 µM.

Q: And the TGI (MALME-3M melanoma)?
A: The TGI was > 100 µM.

Q: And the TGI (OVCAR-8 ovarian)?
A: The TGI was > 100 µM.

Q: And the TGI (SF-295 CNS)?
A: Its TGI is > 100 µM.

Q: What about the TGI (SR leukemia) of the same molecule?
A: The TGI was > 100 µM.

Q: What about the TGI (U251 CNS) of the same molecule?
A: The TGI was > 100 µM.

Q: Which TGI (786-0 renal) does the source give for `COc1ccccc1NC(=O)NS(=O)(=O)c1ccccc1` here?
A: Its TGI is > 100 µM.

Q: And the TGI (HCT-116 colon)?
A: Its TGI is > 100 µM.

Q: What about the TGI (HOP-92 NSCLC) of the same molecule?
A: The TGI was > 100 µM.

Q: And the TGI (MALME-3M melanoma)?
A: The TGI was > 100 µM.

Q: What about the TGI (OVCAR-8 ovarian) of the same molecule?
A: The TGI was > 100 µM.

Q: What about the TGI (SF-295 CNS) of the same molecule?
A: The TGI was > 100 µM.

Q: And the TGI (U251 CNS)?
A: Its TGI is > 100 µM.

Q: Which results are given for `COC(=O)CCCCCCCCC(=O)c1c(C)[nH]c(/C=C2\N=C(c3ccc[nH]3)C=C2OC)c1C`?
A: GI50 (786-0 renal): 8.53 µM; TGI (786-0 renal): > 43.4 µM; GI50 (DU-145 prostate): 32.1 µM; TGI (DU-145 prostate): > 100 µM; GI50 (HCT-116 colon): 8.09 µM; TGI (HCT-116 colon): > 56 µM; GI50 (HOP-92 NSCLC): 4.73 µM; TGI (HOP-92 NSCLC): > 30.5 µM; GI50 (IGROV1 ovarian): > 67.3 µM; TGI (IGROV1 ovarian): > 100 µM; GI50 (MALME-3M melanoma): > 22.9 µM; TGI (MALME-3M melanoma): > 100 µM; GI50 (OVCAR-8 ovarian): 14.4 µM; TGI (OVCAR-8 ovarian): > 59.9 µM; GI50 (SF-295 CNS): > 58.8 µM; TGI (SF-295 CNS): > 100 µM; GI50 (U251 CNS): 10.9 µM; TGI (U251 CNS): > 100 µM

Q: Which results are given for `NC(=O)COc1ccc(Br)cc1Br`?
A: TGI (786-0 renal): > 100 µM; TGI (HCT-116 colon): > 100 µM; TGI (HOP-92 NSCLC): > 100 µM; TGI (IGROV1 ovarian): > 100 µM; TGI (MALME-3M melanoma): > 100 µM; TGI (OVCAR-8 ovarian): > 100 µM; TGI (SF-295 CNS): > 100 µM; TGI (SR leukemia): > 100 µM; TGI (U251 CNS): > 100 µM

Q: What does the source list for `CCCN(CCC)c1c([N+](=O)[O-])cc(C(N)=O)cc1[N+](=O)[O-]`?
A: TGI (786-0 renal): > 100 µM; TGI (HCT-116 colon): > 100 µM; TGI (IGROV1 ovarian): > 100 µM; TGI (MALME-3M melanoma): > 100 µM; TGI (OVCAR-8 ovarian): > 100 µM; TGI (SF-295 CNS): > 100 µM; TGI (U251 CNS): > 100 µM

Q: `CCOC(=O)CCC(NC(=O)c1ccc(Nc2nc3cc(N)cc(N)c3nc2-c2ccccc2)cc1)C(=O)OCC` (stereo not drawn) was tested. Which GI50 (786-0 renal) did it give?
A: Its GI50 is > 42.3 µM.

Q: What about the TGI (786-0 renal) of the same molecule?
A: The TGI was > 60.9 µM.

Q: What about the GI50 (DU-145 prostate) of the same molecule?
A: The GI50 was 65.8 µM.

Q: What about the TGI (DU-145 prostate) of the same molecule?
A: Its TGI is > 100 µM.

Q: And the GI50 (HCT-116 colon)?
A: The GI50 was > 38.7 µM.

Q: And the TGI (HCT-116 colon)?
A: The TGI was > 71.6 µM.

Q: What about the GI50 (HOP-92 NSCLC) of the same molecule?
A: The GI50 was 10.8 µM.

Q: What about the TGI (HOP-92 NSCLC) of the same molecule?
A: Its TGI is 29.7 µM.

Q: And the GI50 (IGROV1 ovarian)?
A: Its GI50 is 22.6 µM.

Q: What about the TGI (IGROV1 ovarian) of the same molecule?
A: Its TGI is > 94.7 µM.

Q: What about the GI50 (MALME-3M melanoma) of the same molecule?
A: Its GI50 is 8.1 µM.

Q: What about the TGI (MALME-3M melanoma) of the same molecule?
A: Its TGI is 15.8 µM.

Q: And the GI50 (OVCAR-8 ovarian)?
A: Its GI50 is 47.1 µM.

Q: And the TGI (OVCAR-8 ovarian)?
A: The TGI was > 100 µM.

Q: And the GI50 (SF-295 CNS)?
A: Its GI50 is > 42 µM.

Q: What about the TGI (SF-295 CNS) of the same molecule?
A: Its TGI is > 66.3 µM.

Q: And the GI50 (U251 CNS)?
A: Its GI50 is > 44.7 µM.

Q: What about the TGI (U251 CNS) of the same molecule?
A: The TGI was > 66 µM.

Q: Which TGI (786-0 renal) does the source give for `O=C1/C(=C/c2ccccc2)CN(C(=O)Oc2ccccc2)C/C1=C\c1ccccc1` here?
A: The TGI was 49.1 µM.

Q: What about the TGI (HCT-116 colon) of the same molecule?
A: Its TGI is 28.7 µM.

Q: And the TGI (IGROV1 ovarian)?
A: The TGI was 83.2 µM.

Q: What about the TGI (MALME-3M melanoma) of the same molecule?
A: The TGI was > 100 µM.

Q: What about the TGI (OVCAR-8 ovarian) of the same molecule?
A: Its TGI is > 100 µM.

Q: And the TGI (SF-295 CNS)?
A: The TGI was 34.1 µM.

Q: What about the TGI (U251 CNS) of the same molecule?
A: The TGI was > 100 µM.

Q: Which results are given for `O=C1NC(=Nc2ccccc2Cl)SC1C(=O)Nc1ccc([N+](=O)[O-])cc1[N+](=O)[O-]` (stereo not drawn)?
A: TGI (786-0 renal): > 100 µM; TGI (HCT-116 colon): > 100 µM; TGI (HOP-92 NSCLC): > 100 µM; TGI (IGROV1 ovarian): > 100 µM; TGI (MALME-3M melanoma): > 100 µM; TGI (OVCAR-8 ovarian): > 100 µM; TGI (SF-295 CNS): > 100 µM; TGI (SR leukemia): > 100 µM; TGI (U251 CNS): > 100 µM

Q: How did the GI50 (786-0 renal) turn out when `COc1ccc(OC)c(/C=C/C(=O)c2ccc(SC)cc2)c1` was run?
A: The GI50 was 7.53 µM.

Q: What about the TGI (786-0 renal) of the same molecule?
A: Its TGI is 21.6 µM.

Q: And the GI50 (DU-145 prostate)?
A: Its GI50 is 4.37 µM.

Q: What about the TGI (DU-145 prostate) of the same molecule?
A: Its TGI is 18.3 µM.

Q: What about the GI50 (HCT-116 colon) of the same molecule?
A: The GI50 was 2.57 µM.

Q: What about the TGI (HCT-116 colon) of the same molecule?
A: Its TGI is 7.77 µM.

Q: What about the GI50 (HOP-92 NSCLC) of the same molecule?
A: Its GI50 is 6 µM.

Q: What about the TGI (HOP-92 NSCLC) of the same molecule?
A: Its TGI is > 100 µM.

Q: What about the GI50 (IGROV1 ovarian) of the same molecule?
A: Its GI50 is 11 µM.

Q: What about the TGI (IGROV1 ovarian) of the same molecule?
A: Its TGI is 27.1 µM.

Q: What about the GI50 (OVCAR-8 ovarian) of the same molecule?
A: Its GI50 is 24.3 µM.

Q: What about the TGI (OVCAR-8 ovarian) of the same molecule?
A: Its TGI is 68.7 µM.

Q: What about the GI50 (SF-295 CNS) of the same molecule?
A: Its GI50 is 5.05 µM.

Q: What about the TGI (SF-295 CNS) of the same molecule?
A: The TGI was 57 µM.

Q: And the GI50 (U251 CNS)?
A: The GI50 was 12.7 µM.

Q: What about the TGI (U251 CNS) of the same molecule?
A: Its TGI is 26.9 µM.
